Measured values taken from PubChem BioAssay AID330 (DTP/NCI, 2004).
Several values for one entry are separate records, joined by “and”; a condition that tells them apart may be missing. Equal entries are not always repeated. Inconclusive results and toxic doses are left out. How the source made its calls: active means survival T/C of 150% or more; inactive means T/C below 125% in these data.

System: P388 leukemia ip, CD2F1 mice, survival T/C
Assay: NCI In Vivo Anticancer Drug Screen. Data for tumor model P388 Leukemia (intraperitoneal) in CD2F1 (CDF1) mice
Conditions: endpoint: median survival time, higher = longer survival
Procedure, shortened: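 Mice carrying the transplanted tumor received test compound or vehicle. Survival was recorded in each group, and the value is the treated-group measurement divided by that of the vehicle-treated control group.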

[1] = dose: 60.0 mg/kg/injection, schedule: Q01DX005 (ip), vehicle: saline with Tween-80
[2] = dose: 120.0 mg/kg/injection, schedule: Q01DX005 (ip), vehicle: saline with Tween-80
[3] = dose: 240.0 mg/kg/injection, schedule: Q01DX005 (ip), vehicle: saline with Tween-80
[4] = dose: 100.0 mg/kg/injection, schedule: Q01DX009 (ip), vehicle: saline with Tween-80
[5] = dose: 200.0 mg/kg/injection, schedule: Q01DX009 (ip), vehicle: saline with Tween-80
[6] = dose: 100.0 mg/kg/injection, schedule: Q01DX001 (ip), vehicle: saline with Tween-80
[7] = dose: 200.0 mg/kg/injection, schedule: Q01DX001 (ip), vehicle: saline with Tween-80
[8] = dose: 400.0 mg/kg/injection, schedule: Q01DX001 (ip), vehicle: saline with Tween-80
[9] = dose: 0.78 mg/kg/injection, schedule: Q01DX009 (ip), vehicle: saline
[10] = dose: 1.56 mg/kg/injection, schedule: Q01DX009 (ip), vehicle: saline
[11] = dose: 50.0 mg/kg/injection, schedule: Q01DX009 (ip), vehicle: saline with Tween-80
[12] = dose: 50.0 mg/kg/injection, schedule: Q01DX005 (ip), vehicle: saline with Tween-80

Measured: T/C

COC(=O)c1nc(=S)[nH]c(C(=O)OC)c1C(=O)c1cc(Cl)ccc1Cl
inactive: [1] 96 % of control | [2] 101 % of control | [3] 100 % of control

C1=C(c2ccccc2)OC(c2ccccc2)=C[P+]1(c1ccccc1)c1ccccc1
inactive: dose: 1.56 mg/kg/injection, schedule: Q01DX005 (ip), vehicle: saline with Tween-80 105 % of control | dose: 3.12 mg/kg/injection, schedule: Q01DX005 (ip), vehicle: saline with Tween-80 120 % of control | dose: 6.25 mg/kg/injection, schedule: Q01DX005 (ip), vehicle: saline with Tween-80 97 % of control

CN(C)S(=O)(=O)c1ncnc2nc[nH]c12
inactive: [4] 90 % of control | dose: 100.0 mg/kg/injection, schedule: Q04DX003 (ip), vehicle: saline sonified 100 % of control | [5] 90 % of control | dose: 200.0 mg/kg/injection, schedule: Q04DX003 (ip), vehicle: saline sonified 91 % of control | dose: 400.0 mg/kg/injection, schedule: Q01DX009 (ip), vehicle: saline with Tween-80 100 % of control | dose: 400.0 mg/kg/injection, schedule: Q04DX003 (ip), vehicle: saline sonified 91 % of control

CCCN=c1c2c(OC)c(OC)ccc2cc2n1CCc1cc3c(cc1-2)OCO3
inactive: dose: 0.63 mg/kg/injection, schedule: Q01DX009 (ip), vehicle: water 110 % of control | dose: 1.25 mg/kg/injection, schedule: Q01DX009 (ip), vehicle: water 99 % of control | dose: 2.5 mg/kg/injection, schedule: Q01DX009 (ip), vehicle: water 110 % of control | dose: 5.0 mg/kg/injection, schedule: Q01DX009 (ip), vehicle: water 110 % of control | dose: 10.0 mg/kg/injection, schedule: Q01DX009 (ip), vehicle: water 115 % of control

O=C(Oc1ccccc1)c1ccc(C(=O)Oc2ccccc2)cc1
inactive: dose: 50.0 mg/kg/injection, schedule: Q01DX009 (ip), vehicle: Klucel (hydroxypropylcellulose) (HPC) 108 % of control | dose: 100.0 mg/kg/injection, schedule: Q01DX009 (ip), vehicle: Klucel (hydroxypropylcellulose) (HPC) 102 % of control | dose: 200.0 mg/kg/injection, schedule: Q01DX009 (ip), vehicle: Klucel (hydroxypropylcellulose) (HPC) 101 % of control

CSCCCCCCCCCCSC
inactive: dose: 50.0 mg/kg/injection, schedule: Q01DX009 (ip), vehicle: saline 99 % of control | dose: 100.0 mg/kg/injection, schedule: Q01DX009 (ip), vehicle: saline 100 % of control | dose: 200.0 mg/kg/injection, schedule: Q01DX009 (ip), vehicle: saline 99 % of control

COc1ccc(C(C)c2cc3c(cc2OCC(=O)O)OCO3)cc1OC (configuration not stated)
inactive: dose: 50.0 mg/kg/injection, schedule: Q01DX005 (ip), vehicle: distilled water + Tween-80 95 % of control | dose: 100.0 mg/kg/injection, schedule: Q01DX005 (ip), vehicle: distilled water + Tween-80 102 % of control

COC(=O)CNP(=O)(NCC(=O)OC)N(CCCl)CCCl
inactive: dose: 30.0 mg/kg/injection, schedule: Q01DX005 (ip), vehicle: saline 102 % of control | dose: 60.0 mg/kg/injection, schedule: Q01DX005 (ip), vehicle: saline 115 % of control
active: dose: 120.0 mg/kg/injection, schedule: Q01DX005 (ip), vehicle: saline 153 % of control and 161 % of control | dose: 240.0 mg/kg/injection, schedule: Q01DX005 (ip), vehicle: saline 161 % of control and 238 % of control

OCC1OC(n2ncc3c(Cl)ccnc32)C(O)C1O (configuration not stated)
inactive: dose: 4.0 mg/kg/injection, schedule: Q01DX005 (ip), vehicle: saline with Tween-80 100 % of control | dose: 8.0 mg/kg/injection, schedule: Q01DX005 (ip), vehicle: saline with Tween-80 103 % of control | dose: 16.0 mg/kg/injection, schedule: Q01DX005 (ip), vehicle: saline with Tween-80 97 % of control | dose: 32.0 mg/kg/injection, schedule: Q01DX005 (ip), vehicle: saline with Tween-80 109 % of control | dose: 64.0 mg/kg/injection, schedule: Q01DX005 (ip), vehicle: saline with Tween-80 100 % of control

C=C1COC(=O)[C@@]12CC[C@@]1(C)[C@@H](CC[C@@H]3[C@@H]1CC[C@]1(C)C([C@H](C)CCCC(C)C)CC[C@@H]31)C2 (some centres not stated)
inactive: [6] 96 % of control | [7] 93 % of control | [8] 91 % of control

CN1CCN2C(=O)CCC2c2cc(Cl)ccc21 (configuration not stated)
inactive: [6] 101 % of control | [7] 101 % of control | [8] 101 % of control

N=C(N)CCCCCCCCC(=N)N
inactive: [9] 98 % of control and 111 % of control and 118 % of control | dose: 1.5 mg/kg/injection, schedule: Q01DX009 (ip), vehicle: saline 116 % of control | [10] 112 % of control and 114 % of control | dose: 6.25 mg/kg/injection, schedule: Q01DX009 (ip), vehicle: saline 123 % of control | dose: 12.5 mg/kg/injection, schedule: Q01DX009 (ip), vehicle: saline 107 % of control and 116 % of control and 119 % of control

COc1ccc(C(=O)ON(c2ccccc2)C(C)(C)C)cc1
inactive: dose: 25.0 mg/kg/injection, schedule: Q01DX009 (ip), vehicle: saline with Tween-80 97 % of control | [11] 103 % of control | [4] 97 % of control

COc1cc(Br)cc(/C=C/[N+](=O)[O-])c1OC
inactive: [11] 115 % of control

O=C1CCCCCCCCCC/C1=N/O
inactive: [11] 99 % of control | [4] 89 % of control | [5] 96 % of control

Cc1ccc2c(c1)Nc1c(ccc3ccccc13)S2
inactive: [12] 105 % of control | dose: 100.0 mg/kg/injection, schedule: Q01DX005 (ip), vehicle: saline with Tween-80 105 % of control | dose: 200.0 mg/kg/injection, schedule: Q01DX005 (ip), vehicle: saline with Tween-80 103 % of control

C1OCOCO1
inactive: dose: 25.0 mg/kg/injection, schedule: Q01DX005 (ip), vehicle: Klucel (hydroxypropylcellulose) (HPC) 98 % of control | dose: 50.0 mg/kg/injection, schedule: Q01DX005 (ip), vehicle: Klucel (hydroxypropylcellulose) (HPC) 95 % of control | dose: 100.0 mg/kg/injection, schedule: Q01DX005 (ip), vehicle: Klucel (hydroxypropylcellulose) (HPC) 95 % of control | dose: 200.0 mg/kg/injection, schedule: Q01DX005 (ip), vehicle: Klucel (hydroxypropylcellulose) (HPC) 109 % of control | dose: 400.0 mg/kg/injection, schedule: Q01DX005 (ip), vehicle: Klucel (hydroxypropylcellulose) (HPC) 101 % of control

c1ccc2c(c1)[nH]c1nc3ccncc3nc12
inactive: [11] 90 % of control | [4] 90 % of control

N#CCc1ccc(N(CCO)CCO)cc1
inactive: dose: 12.5 mg/kg/injection, schedule: Q01DX005 (ip), vehicle: saline with Tween-80 102 % of control | dose: 25.0 mg/kg/injection, schedule: Q01DX005 (ip), vehicle: saline with Tween-80 101 % of control | [12] 101 % of control and 104 % of control

CCOc1ccc(NC(=O)CC(C)O)cc1 (configuration not stated)
inactive: [11] 94 % of control | [4] 93 % of control | [5] 96 % of control

CCCCCCCCCCCCCCCC1C(N)C(=O)N(C)N1C (configuration not stated)
inactive: [11] 86 % of control | [4] 95 % of control

O=C1NC2(CCCCC2)C(=O)N1CCCCN(CCCl)CCCl
active: dose: 24.0 mg/kg/injection, schedule: Q01DX005 (ip), vehicle: saline 165 % of control | dose: 50.0 mg/kg/injection, schedule: Q01DX005 (ip), vehicle: saline 160 % of control | dose: 100.0 mg/kg/injection, schedule: Q01DX005 (ip), vehicle: saline 187 % of control
inactive: dose: 1.5 mg/kg/injection, schedule: Q01DX005 (ip), vehicle: saline 122 % of control | dose: 6.0 mg/kg/injection, schedule: Q01DX005 (ip), vehicle: saline 119 % of control

COc1ccc(Cc2coc3ccccc3c2=O)cc1
inactive: [1] 102 % of control | [2] 92 % of control | [3] 100 % of control

Nc1nc(N)c2c(n1)NC(=O)CC2c1ccccc1 (configuration not stated)
inactive: [1] 97 % of control | [2] 90 % of control | [3] 90 % of control

C=CC[P+](C)(c1ccccc1)c1ccccc1
inactive: [9] 94 % of control | [10] 97 % of control | dose: 3.13 mg/kg/injection, schedule: Q01DX009 (ip), vehicle: saline 106 % of control

COC(=O)[C@@]12OC[C@]34[C@H]([C@@H](O)[C@@H]1O)[C@@]1(C)CC(=O)C(O)=C(C)[C@@H]1C[C@H]3OC(=O)[C@H](OC(=O)/C=C(/C)C(C)(C)O)[C@@H]24
inactive: dose: 0.25 mg/kg/injection, schedule: Q01DX009 (ip), vehicle: saline + alcohol 113 % of control and 115 % of control | dose: 0.5 mg/kg/injection, schedule: Q01DX009 (ip), vehicle: saline + alcohol 115 % of control (2×) and 124 % of control
active: dose: 8.0 mg/kg/injection, schedule: Q01DX009 (ip), vehicle: saline + alcohol 162 % of control
